Source: the METLIN SMRT retention time set (Domingo-Almenara et al. 2019)

Assay: gradient 5% acetonitrile 3 min, to 50% in 2 min, to 85% in 15 min, held 3 min, 100 µL/min
Conditions: column: Zorbax Extend-C18 2.1 x 50 mm; eluents: water / acetonitrile, 0.1% formic acid
In short: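 The system's dead and dwell volumes were 40 μL and 900 μL, with a Zorbax Extend-C18 column (2.1 × 50 mm, 1.8 μm) run at 100 μL/min in water and acetonitrile containing 0.1% formic acid each. Pure standards were analyzed in mixtures of ~100 molecules by HPLC–quadrupole time-of-flight mass spectrometry in positive and negative ionization mode. Retention time was assigned from computationally picked, manually inspected adduct peaks.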

Structure (SMILES): Cn1c(=O)c(C(=O)N2CCN(c3ccccn3)CC2)nn(-c2ccc(Cl)cc2)c1=O
- RP-LC retention time: 663 s

Structure (SMILES): Nc1nc(-c2ccc(Cl)cc2)nn1C(=O)c1ccc(Cl)cc1
- RP-LC retention time: 1170 s

Structure (SMILES): Cc1nnc(NC(=O)CN2CCCCC2c2nc(C(C)C)no2)s1 (centres undefined)
- RP-LC retention time: 781 s

Structure (SMILES): CC(=O)O[C@H]1C[C@@H]2OC3C=C(C)CCC3(C)[C@@]1(C)[C@@]21CO1 (some centres undefined)
- RP-LC retention time: 833 s

Structure (SMILES): O=C(c1cccs1)N1CCCCC1c1nncn1CC1CC1 (centres undefined)
- RP-LC retention time: 690 s

Structure (SMILES): Cc1noc(-c2ccc(OC3CN(C(=O)c4ccoc4)C3)cc2)n1
- RP-LC retention time: 781 s

Structure (SMILES): Cc1ccc2c(Cl)c(C(=O)N3CCN(c4ccccn4)CC3)sc2c1
- RP-LC retention time: 726 s

Structure (SMILES): O=C(c1[nH]nc2c1COc1ccccc1-2)N1CC(c2noc(COc3ccc(F)cc3)n2)C1
- RP-LC retention time: 943 s

Structure (SMILES): CCn1nccc1-c1cccc(-c2noc(-c3cc(Cl)ccc3F)n2)c1
- RP-LC retention time: 1300 s

Structure (SMILES): CC(C)CN1CCN(C(=O)C2CCCN(c3cnc4nccnc4c3)C2)CC1 (centres undefined)
- RP-LC retention time: 564 s

Structure (SMILES): Cc1cc2cc(CNC(=O)C(C)Oc3ccccc3)ccc2[nH]1 (centres undefined)
- RP-LC retention time: 792 s

Structure (SMILES): CCn1ccc2cc(S(=O)(=O)N3CCCN(C(=O)NC4CCCCC4)CC3)ccc21
- RP-LC retention time: 936 s

Structure (SMILES): Cc1cc(C)cc(NC(=O)C2(C)Oc3cccnc3NC2=O)c1 (centres undefined)
- RP-LC retention time: 702 s

Structure (SMILES): COC(=O)c1nnn(-c2cc(C)cc(C)c2)c1C(=O)OC
- RP-LC retention time: 949 s

Structure (SMILES): Cc1ccc(NC(=O)NCC2(N3CCOCC3)CCOC2)c(C)c1 (centres undefined)
- RP-LC retention time: 597 s

Structure (SMILES): CCOC(=O)C(C)NC(=O)N1CCN(c2nc3ccccc3nc2C(F)(F)F)CC1 (centres undefined)
- RP-LC retention time: 921 s

Structure (SMILES): Cc1cc(=O)c(OCc2ccccc2F)cn1CC(=O)NCc1ccccc1Cl
- RP-LC retention time: 632 s

Structure (SMILES): COCCCNS(=O)(=O)c1ccccc1-c1nc(-c2cccc(F)c2)no1
- RP-LC retention time: 1040 s

Structure (SMILES): Cc1noc(-c2ccnc(-n3cnc(C(=O)N4CCOCC4)c3)c2)n1
- RP-LC retention time: 638 s

Structure (SMILES): COC(=O)c1scc(-c2ccccc2)c1S(=O)(=O)N1CCC(C(N)=O)(N2CCCCC2)CC1
- RP-LC retention time: 662 s

Structure (SMILES): Cc1ccccc1-n1ccn(Cc2nc(-c3ccc(C(C)(C)C)cc3)no2)c(=O)c1=O
- RP-LC retention time: 1050 s

Structure (SMILES): Cc1ccc(C)c(N2CCN(c3ccnc(SCC(=O)NCCC4=CCCCC4)n3)CC2)c1
- RP-LC retention time: 1090 s

Structure (SMILES): Cc1ccc2cc(CCC(=O)NCCCN3CCCCC3)c(=O)[nH]c2c1
- RP-LC retention time: 584 s

Structure (SMILES): O=S(=O)(c1ccc(-c2noc(-c3ccccc3F)n2)cc1)N1CCOCC1
- RP-LC retention time: 1030 s

Structure (SMILES): O=C(CSc1nc2ncccc2[nH]1)Nc1ccc(Br)cc1F
- RP-LC retention time: 720 s

Structure (SMILES): CC(C)C(=O)N1CCc2cc(C(=O)NC3CC3)ccc21
- RP-LC retention time: 698 s

Structure (SMILES): CN1C(=O)C(CC(=O)Nc2ccccc2)=C2CCCCC21 (centres undefined)
- RP-LC retention time: 758 s

Structure (SMILES): COc1ccc(C2CC(=O)c3cnc(Nc4nc(C)c5cc(C)c(C)cc5n4)nc3C2)cc1 (centres undefined)
- RP-LC retention time: 775 s

Structure (SMILES): CCOC(=O)Cc1c(CN2CCN(C)CC2)c2ccccc2n1Cc1ccccc1
- RP-LC retention time: 681 s

Structure (SMILES): O=c1n(Cc2ccc(F)cc2Cl)nc2c(S(=O)(=O)N3CCCC3)cccn12
- RP-LC retention time: 1020 s

Structure (SMILES): COc1ccc(NC(=O)C2CC(=O)N(CCc3c[nH]c4ccc(Cl)cc34)C2)cc1 (centres undefined)
- RP-LC retention time: 818 s

Structure (SMILES): CCn1cnc2ccc(-c3noc(-c4cccc(OC)c4)n3)cc21
- RP-LC retention time: 788 s

Structure (SMILES): O=C(Nc1ccc2c(c1)N(C(=O)C1CCCO1)CC2)c1ccc(F)c(F)c1 (centres undefined)
- RP-LC retention time: 771 s

Structure (SMILES): Cc1cc(C)cc(C(=O)NC2CCN(c3cc(-c4ccc(F)cc4)[nH]n3)C2)c1 (centres undefined)
- RP-LC retention time: 795 s

Structure (SMILES): O=C(O)/C=C/C(=O)N1Cc2cc3ccccc3nc2C1
- RP-LC retention time: 681 s

Structure (SMILES): CCn1nccc1-c1cccc(-c2noc(-c3cc(OC)cc(OC)c3)n2)c1
- RP-LC retention time: 1240 s

Structure (SMILES): Cc1cccc(Cn2c(=O)n(CCNC(=O)CC(C)C)c3ncccc32)c1
- RP-LC retention time: 800 s

Structure (SMILES): O=C(C1CCN(S(=O)(=O)N2CCOCC2)CC1)N1CCCC(c2nc(C3CCOCC3)no2)C1 (centres undefined)
- RP-LC retention time: 700 s

Structure (SMILES): O=C(C1=NN(c2ccc(F)cc2)c2ccc(F)cc2S1(=O)=O)N1CCOCC1
- RP-LC retention time: 829 s

Structure (SMILES): Cc1ccc(S(=O)(=O)Cc2ccc(-c3nc(-c4ccc5oc(C)nc5c4)no3)cc2)cc1
- RP-LC retention time: 1070 s

Structure (SMILES): CC1CCN(C(=O)Cn2c(=O)n(-c3ccc(F)cc3)c3ncccc32)CC1
- RP-LC retention time: 834 s

Structure (SMILES): CC(C)CC(=O)N1c2nc(-c3ccccc3)nn2C2(CCCCC2)[C@@H]2CCCC[C@@H]21
- RP-LC retention time: 674 s

Structure (SMILES): Brc1ccc(OCc2nnc3sc(-c4ccccc4)nn23)cc1
- RP-LC retention time: 1050 s

Structure (SMILES): Cc1nc(-c2noc(-c3cccnc3)n2)cn1CC(=O)NCc1cccs1
- RP-LC retention time: 662 s

Structure (SMILES): CNC(=O)[C@@H]1C[C@@H](O)CN1C1CCN(C(=O)c2cc(C)oc2C)CC1
- RP-LC retention time: 613 s

Structure (SMILES): Cc1cc(C)cc(NC(=O)Nc2nccn(-c3cccc(F)c3)c2=O)c1
- RP-LC retention time: 1030 s

Structure (SMILES): Cc1cc(Cl)ccc1N1C(=O)CN(S(C)(=O)=O)CC1(C)C(=O)NCc1ccccc1 (centres undefined)
- RP-LC retention time: 863 s

Structure (SMILES): COc1ccc(NC(=O)C2CC(=O)N(CCc3c[nH]c4ccc(OC)cc34)C2)cc1 (centres undefined)
- RP-LC retention time: 728 s

Structure (SMILES): O=C(CN1CCN(C(=O)c2sc3ncccc3c2-n2cccc2)CC1)N1CCCC1
- RP-LC retention time: 607 s
